According to patent US20090088482A1, “Compositions and Methods For Treating Heart Failure” (The Trustees Of Columbia University In The City New York, priority 2003, published 2009):

Assays:
[1] = test system: rats with HF induced by LAD ligation; experiment: Hemodynamic measurements (Millar catheter) in LAD ligation ischemic HF rats (Example 5); type: in vivo, Sprague-Dawley rats; details: mean ± SD, after 9 weeks oral therapy; for MAP: HF 47.2 ± 8.85, Sham 39.8 ± 5.56; for LVSP: HF 113 ± 10.3, Sham 116 ± 17.3; for HR: HF 302 ± 19.1, Sham 291 ± 52.2; for Maximum dP/dt: HF 4609 ± 583, Sham 6700 ± 1706; for Minimum dP/dt: HF −3854 ± 563, Sham −6458 ± 1799
Procedure: After the induction of general anesthesia with the use of intraperitoneal ketamine (75 mg/kg; Fort Dodge Animal Health, Fort Dodge, Iowa) and xylazine (5 mg/kg; Lloyd Laboratories, Shenandoah, Iowa), endotracheal intubation with a 16-guage angiocathether was performed. Rats were supported by a small animal ventilator (Harvard Apparatus, Holliston, Mass.). After performing a left thoracotomy, a sham operation (pericardiectomy only) or left anterior descending artery (LAD) ligation with a 7-0 polypropylene suture was performed. Subsequently, a chest tube (16-guage angiocathether) was placed in the left pleural space prior to closing the incision in three layers. Finally, the chest tube was used to aspirate the pleural cavity and removed after extubation.
A total of 69 rats were used in this study. […] Three weeks post-operatively, echocardiography was performed to establish the baseline level of HF (as measured by fractional shortening). The LAD ligation rats were divided into 4 treatment groups matched for the degree of HF and were randomly assigned to one of the following therapies for 9 additional weeks: (1) rats receiving no therapy (group HF, n=9); (2) rats receiving high-dose clenbuterol at 1 mg/kg/day (group Clen, n=9); (3) rats receiving high-dose metoprolol at 200 mg/kg/day (group Meto, n=9); or (4) rats receiving concurrent high-dose clenbuterol at 1 mg/kg/day and high-dose metoprolol therapy at 200 mg/kg/day (group Clen+Meto, n=10).
Clenbuterol (ICN Biomedicals, Aurora, Ohio) was sonicated and subsequently dissolved in the drinking water. Metoprolol (Sigma-Aldrich, St. Louis, Mo.) was dissolved in the drinking water either alone or in combination with clenbuterol for the Clen+Meto group. The concentrations of clenbuterol and metoprolol were varied to keep the study drug dose delivered within a narrow therapeutic window based on daily water consumption. […] The treated drinking water was made fresh every 48-72 hours. Oral pharmacotherapy was continued for a total of 9 weeks.
In the terminal experiments 12 weeks post-surgery, the rats were anesthetized with inhaled isoflurane mixed with oxygen. A 2-French Millar catheter (Millar Instruments, Houston, Tex.) was inserted into the right carotid artery and pressure measurements collected and saved as the catheter was advanced into the left ventricle. The heart was quickly arrested in diastole and excised. Hearts were subsequently weighed and used for the ex vivo determination of LV end-diastolic pressure-volume relationships (EDPVR). Using Chart 4 (version 4.2.4, ADInstruments, Colorado Springs, Colo.), left ventricular end-diastolic pressure (LVEDP), left ventricular systolic pressure (LVSP), mean aortic pressure (MAoP), heart rate, and maximum and minimum LV dP/dt (dP/dtmax and dP/dtmin) were later obtained from stored hemodynamic recordings by a single individual (S.X.), who was blinded to animals' group assignments.

[2] = test system: rats with chronic heart failure induced by coronary artery ligation; experiment: Echocardiography and direct hemodynamic monitoring in rats with chronic heart failure induced by coronary artery ligation (Example 2); type: in vivo; details: 2 mg/kg/day oral, 8 weeks
Procedure: (§1) Chronic heart failure was induced by coronary artery ligation in rats, and was confirmed by echocardiography, three weeks post-surgery. Three groups of rats were studied: (1) Chronic heart failure without clenbuterol (n=7); (2) chronic heart failure+clenbuterol (2 mg/kg/day; n=5); and (3) rats after sham operation (n=11). After 8 weeks of oral clenbuterol therapy, echocardiography and direct hemodynamic monitoring were performed. Rat hearts were then harvested for ex vivo left ventricular pressure-volume relationship (LVPVR) tracings, histologic (trichrome) sections, and molecular assays. Western analysis for myocardial calcium-handling proteins (ryanodine receptors (RyR), SERCA2a, phospholamban, and calcium-sodium exchanger) was assessed by densitometry.

[3] = test system: rats with chronic heart failure induced by coronary artery ligation; experiment: Ex vivo left ventricular pressure-volume relationship (LVPVR) tracings (Example 2); type: in vivo; details: 2 mg/kg/day oral, 8 weeks, untreated CHF 1.11
Procedure: as §1

[4] = ten of 15 LVAD patients; with ACE inhibition, β-1 selective blockade, spironolactone; cited from earlier work
[5] = test system: ryanodine receptors (RyR); experiment: Western analysis of myocardial calcium-handling proteins by densitometry: RyR (Example 2); type: in vivo, rats; details: 2 mg/kg/day oral, 8 weeks, untreated CHF 1.6±0.4, Sham 2.8±0.8
Procedure: as §1

[6] = test system: sarcoplasmic reticulum calcium-ATPase (SERCA2a); experiment: Western blot of calcium-handling protein expression: SERCA2a (Example 5); type: in vivo, Sprague-Dawley rats; details: FIG. 6; not different from Sham
Procedure: Five rat hearts from each group (HF, Clen, Meto, Clen+Meto, and Sham) were randomly selected and used for analysis of calcium-handling protein expression levels. Lysates of LV tissue were obtained with the use of a homogenizer (Brinkmann Instruments, Westbury, N.Y.). Approximately 150 mg of heart tissue was placed in a seven-fold volume of lysis buffer (20 mM/L Na-HEPES, 4 mM/L EGTA, 1 mM/L DTT, pH 7.4) in the presence of proteinase inhibitors (0.1 mM/L leupeptin and 0.3 mM/L PMSF). The protein concentration was determined using a protein assay kit (Bio-Rad Laboratories, Hercules, Calif.). Samples (50 μg) were denatured at 95° C. and size-fractionated using SDS-polyacrylamide gel electrophoresis (PAGE) under reducing conditions. SDS-PAGE was performed using 7.5% separating and 5% stacking gels for SERCA2a and 5% separating and 4% stacking gels for RyR. Electrophoresis was performed in a Miniprotean II cell (Bio-Rad Laboratories, Hercules, Calif.) followed by transfer of proteins (using 34 V overnight at 4° C.) onto nitrocellulose in a mini trans-blot transfer cell (Bio-Rad Laboratories, Hercules, Calif.) filled with transfer buffer (25 m/L Tris-HCl, pH 8.3, 192 mM/L glycine and 20% methanol). […]
Optical densities of protein level signals were quantified with the use of a laser scanning densitometer (Molecular Dynamics, Palo Alto, Calif.) in a blinded manner. […]

SERCA2a = experiment: Western analysis of myocardial calcium-handling proteins by densitometry: SERCA2a (Example 2); type: in vivo, rats; details: 2 mg/kg/day oral, 8 weeks, untreated CHF 1.7±0.5, Sham 2.2±0.4
Procedure: as §1

Q: Which MAP [1] does the source give for COCCc1ccc(OCC(O)CNC(C)C)cc1 (stereo not shown) [Meto, metoprolol] here?
A: 42.7 ± 5.38 mmHg

Q: What about the LVSP [1] of the same molecule?
A: 107 ± 9.27 mmHg

Q: What about the HR [1] of the same molecule?
A: 243 ± 19.4 bpm

Q: And the “Maximum dP/dt” value [1]?
A: 5462 ± 541 mmHg/s

Q: What about the “Minimum dP/dt” value [1] of the same molecule?
A: −4032 ± 830 mmHg/s

Q: What does the source list for CC(C)(C)NCC(O)c1cc(Cl)c(N)c(Cl)c1 (stereo not shown) [Clen, clenbuterol]?
A: MAP [1]: 44.2 ± 6.06 mmHg; LVSP [1]: 109 ± 10.7 mmHg; HR [1]: 281 ± 11.2 bpm; Maximum dP/dt [1]: 4933 ± 596 mmHg/s; Minimum dP/dt [1]: 3901 ± 694 mmHg/s; LVEDP ([2]; untreated CHF 27±5, Sham 12±3): 15±6 mmHg; LV fractional area change ([2]; untreated CHF 35±3, Sham 53±2): 42±1%; LV pressure ([2]; untreated CHF 94±2.8, Sham 114±3.3): 100±6 mmHg; LVdP/dt ([2]; untreated CHF 2,570±384, Sham 3,728±193): 3,250±325 mmHg/s; LVPVR volume for a given LV pressure=15 mmHg [3]: 1.02 mL; rate of myocardial recovery (LVAD explantation for recovery) [4]: 67%; Protein level of RyR [5]: 2.2±0.7; SERCA2a protein expression level relative to tubulin, versus HF group [6]: significantly improved; Protein level of SERCA2a (SERCA2a): 2.0±0.2
